Read-outs that look alike come from different tables or passages of the source.
Columns and labels:
[1] = target: T1, full length human IRAK4 protein (Homo sapiens, UniProt Q9NWZ3); assay: IRAK4 biochemical assay (Promega ADP-Glo IRAK4 Kinase Enzyme System); conditions: 3 nM enzyme, 2 μM MBP, 250 μM ATP, 60 min at room temperature
T1 construct: Purified full length human IRAK4 protein; purchased Signal Chem 1112-10G-125
T1 sequence (Q9NWZ3 1-460): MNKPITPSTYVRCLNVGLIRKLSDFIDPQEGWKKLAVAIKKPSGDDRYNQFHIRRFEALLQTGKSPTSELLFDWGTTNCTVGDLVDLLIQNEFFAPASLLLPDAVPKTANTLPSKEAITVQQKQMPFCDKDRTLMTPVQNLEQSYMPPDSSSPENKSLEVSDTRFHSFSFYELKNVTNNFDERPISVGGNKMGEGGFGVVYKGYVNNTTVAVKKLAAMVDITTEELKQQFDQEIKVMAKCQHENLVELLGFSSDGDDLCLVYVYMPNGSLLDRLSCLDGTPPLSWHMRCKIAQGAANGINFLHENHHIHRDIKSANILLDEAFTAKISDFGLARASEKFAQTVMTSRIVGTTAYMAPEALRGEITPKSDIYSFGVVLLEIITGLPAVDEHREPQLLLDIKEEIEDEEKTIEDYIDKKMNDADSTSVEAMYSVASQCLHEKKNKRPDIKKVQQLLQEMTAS
Method: For the routine compound screening, an IRAK4 kinase assay was performed as follows using Promega ADP-Glo IRAK4 Kinase Enzyme System (Promega, Cat #2198-AD). Purified full length human IRAK4 protein (Signal Chem; Cat #1112-10G-125) was diluted to a concentration 6 nM in assay buffer (25 mM MOPS, pH 7.2, 12.5 mM β-glycerol-phosphate, 25 mM MgCl2, 5 mM EGTA, 2 mM EDTA, 0.0025% Brij-35, add 0.25 mM DTT to Kinase Assay Buffer prior to use) containing IRAK4 inhibitor at 2× the final concentration in 0.4% DMSO. The reaction was performed in PerkinElmer Proxiplate-384 plus white plate (Fisher Scientific, Cat #50-905-2761) and started by the addition of an equal volume of the assay buffer containing 4 μM native swine myelin basic protein (MBP) and 500 μM ATP to achieve a final concentration of 3 nM enzyme, 2 μM MBP, 250 μM ATP, 1×compound, and 0.2% DMSO. The kinase reaction was allowed to run for 60 min at room temperature (25-27° C.), then 5 μL of ADP-Glo was added to the reaction in each well followed by 40 minutes-incubation at RT. To detect converted ATP, 10 μL Detection Buffer was added into each well and Incubate at RT in dark for 30 minutes. Finally, luminescence was read using Tecan with 1000 ms of integration time. The luminescent signal positively correlates with ADP amount and kinase activity. Data was analyzed by GraphPad Prism and IC50 was calculated using function log(inhibitor) vs. response—Variable slope (four parameters). Percentage of inhibition was calculated as below:
% inhibition=(1−(Reading(Sample)−Reading(Negative Control))/(Reading(Positive Control)−Reading(Negative Control)))×100%
The 0% inhibition value comes from the Reading of Positive Control wells having 0 nM compound. The 100% inhibition value comes from the Reading of Negative Control wells having no IRAK4 kinase.

[2] = tested on: IRAK4 (TNFα in human peripheral blood mononuclear cells); assay: IRAK4 human PBMC TNFα cell based assay (AlphaLISA); conditions: TNFα readout
Method: In this assay, serially diluted compounds were incubated with 1×10^4 human peripheral blood mononuclear cells (PBMCs) from STEMCELL (Cat #70025.1) per well of 384-well plate (Fisher Scientific; 50-905-2761) and cultured with TexMACS medium (Miltenyi, Cat #130-097-196), stimulated by R848 (0.5 μM) or IL-1β (10 ng/ml). Plates were covered with lids and incubated for 4 h (R848, Fisher Scientific, Cat #NC9801605) or 24 h (IL-1β, Fisher Scientific, Cat #ENRIL1BI) at 37° C. in a humidified tissue-culture incubator. After a brief centrifugation at 1000 rpm for 5 minutes, 5 μl of culture medium was used for the measurement of the TNFα amount using TNFα (human) AlphaLISA Detection Kit (PerkinElmer, Cat #AL208C) according to manufacturer's protocol. A biotinylated anti-TNFα antibody binds to the Streptavidin-coated Donor beads while another anti-TNFα antibody is conjugated to AlphaLISA Acceptor beads. In the presence of the TNFα, the beads come into close proximity. The excitation of the Donor beads causes the release of singlet oxygen molecules that triggers a cascade of energy transfer in the Acceptor beads, resulting in a sharp peak of light emission at 615 nm. AlphaLISA assay plates were read using PHERAstar. Percentage of inhibition was calculated as below:
% inhibition=(1−(Reading(Sample)−Reading(Negative Control))/(Reading(Positive Control)−Reading(Negative Control)))×100% […]

SMILES	IC50 [1] [µM]	IRAK4 Biochemical Assay Max Inhibition (%) [1] [%]	IC50 ([2]; human PBMCs stimulated by IL-1β (10 ng/ml), 24 h, read-out: IRAK4 PBMC AlphaLISA IL-1β (IC50)) [µM]	IC50 ([2]; human PBMCs stimulated by R848 (0.5 μM), 4 h, read-out: IRAK4 PBMC AlphaLISA R848 (IC50)) [µM]
COc1cc2c(OC[C@@H]3CCC(=O)N3)nsc2cc1C(N)=O [Example 1, (S)-5-methoxy-3-((5-oxopyrrolidin-2-yl)methoxy)benzo[d]isothiazole-6-carboxamide]	0.24	98.0	–	–
CC[C@@H]1[C@H](F)C(=O)N[C@@H]1COc1nsc2cc(C(N)=O)c(OC)cc12 [Example 2]	0.014	93.0	0.026	0.021

Reference: patent US20220213086A1, “AZOLE COMPOUNDS AS IRAK INHIBITORS, PREPARATION METHODS AND MEDICINAL USES THEREOF” (Eternity Bioscience Inc., priority 2020, published 2022)
